Reference: ChEMBL document CHEMBL4007392, “Modulating Mineralocorticoid Receptor with Non-steroidal Antagonists. New Opportunities for the Development of Potent and Selective Ligands without Off-Target Side Effects” (J Med Chem, 2017)
pIC50: −log10 of the molar value.

Target: T1, Progesterone receptor (Homo sapiens, UniProt P06401)
T1 sequence (P06401 whole entry): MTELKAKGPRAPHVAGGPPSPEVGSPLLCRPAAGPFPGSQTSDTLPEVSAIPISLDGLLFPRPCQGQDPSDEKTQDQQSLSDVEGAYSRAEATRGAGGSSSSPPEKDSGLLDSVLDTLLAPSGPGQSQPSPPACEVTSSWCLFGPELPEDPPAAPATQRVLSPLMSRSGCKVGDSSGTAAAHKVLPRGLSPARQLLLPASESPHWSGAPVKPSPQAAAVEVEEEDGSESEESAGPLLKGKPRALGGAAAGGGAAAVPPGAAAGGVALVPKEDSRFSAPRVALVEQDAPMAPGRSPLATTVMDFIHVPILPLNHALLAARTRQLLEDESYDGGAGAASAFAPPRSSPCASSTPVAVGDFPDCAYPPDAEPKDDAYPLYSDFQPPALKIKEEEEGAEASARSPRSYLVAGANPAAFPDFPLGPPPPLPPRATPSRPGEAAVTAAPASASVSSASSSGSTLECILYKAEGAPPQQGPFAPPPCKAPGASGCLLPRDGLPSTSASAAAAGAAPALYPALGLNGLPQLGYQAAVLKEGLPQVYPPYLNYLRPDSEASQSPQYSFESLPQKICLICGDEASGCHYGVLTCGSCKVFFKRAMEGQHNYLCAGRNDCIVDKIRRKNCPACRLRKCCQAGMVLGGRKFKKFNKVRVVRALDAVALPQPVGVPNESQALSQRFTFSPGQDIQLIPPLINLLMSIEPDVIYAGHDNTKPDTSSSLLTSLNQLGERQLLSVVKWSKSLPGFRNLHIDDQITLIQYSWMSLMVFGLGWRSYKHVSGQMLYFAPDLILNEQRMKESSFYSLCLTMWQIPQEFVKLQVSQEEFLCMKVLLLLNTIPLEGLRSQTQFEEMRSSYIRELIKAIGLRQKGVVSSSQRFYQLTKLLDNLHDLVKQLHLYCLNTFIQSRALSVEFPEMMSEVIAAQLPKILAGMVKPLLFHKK
Assay: Antagonist activity at GAL4-fused human PR LBD (680 to 933 residues) expressed in CHO-K1 cells assessed as inhibition of progesterone-induced transactivation activity after 5 to 6 hrs by luciferase reporter gene assay
Assay type: cell-based

With CCOc1ncc(C)c2c1[C@H](c1ccc(C#N)cc1OC)C(C(N)=O)=C(C)N2 [FINERENONE] the pIC50 was at most 5.00.
